Experimental data as given in patent US12472193B2, “Methods and compositions for treating and preventing respiratory related diseases and conditions with xylitol-headgroup lipid analogs” (National Jewish Health, priority 2017, dated 2025).
“Also recorded” adds a separate entry of the source.

Legend:
TLR 9 = target: T1, TLR 9 (Mus musculus, UniProt Q9EQU3); assay: CpG-induced TNFα secretion by RAW264.7 cells (TLR 9 antagonism); format: cell-based; settings: for antagonism of TLR 9 activation (TNFα secretion): 5 μg/mL CpG, 100 μg/mL phospholipid, 5.5 hours; for TLR9 antagonist activity: reduction in cytokine secretion vs activating TLR ligand alone
T1 construct: RAW264.7 cells secrete TNF-α in response to the TLR9 agonist CpG; endogenous in cells; host or cells: RAW264.7 (ATCC)
T1 sequence (Q9EQU3 26-1032): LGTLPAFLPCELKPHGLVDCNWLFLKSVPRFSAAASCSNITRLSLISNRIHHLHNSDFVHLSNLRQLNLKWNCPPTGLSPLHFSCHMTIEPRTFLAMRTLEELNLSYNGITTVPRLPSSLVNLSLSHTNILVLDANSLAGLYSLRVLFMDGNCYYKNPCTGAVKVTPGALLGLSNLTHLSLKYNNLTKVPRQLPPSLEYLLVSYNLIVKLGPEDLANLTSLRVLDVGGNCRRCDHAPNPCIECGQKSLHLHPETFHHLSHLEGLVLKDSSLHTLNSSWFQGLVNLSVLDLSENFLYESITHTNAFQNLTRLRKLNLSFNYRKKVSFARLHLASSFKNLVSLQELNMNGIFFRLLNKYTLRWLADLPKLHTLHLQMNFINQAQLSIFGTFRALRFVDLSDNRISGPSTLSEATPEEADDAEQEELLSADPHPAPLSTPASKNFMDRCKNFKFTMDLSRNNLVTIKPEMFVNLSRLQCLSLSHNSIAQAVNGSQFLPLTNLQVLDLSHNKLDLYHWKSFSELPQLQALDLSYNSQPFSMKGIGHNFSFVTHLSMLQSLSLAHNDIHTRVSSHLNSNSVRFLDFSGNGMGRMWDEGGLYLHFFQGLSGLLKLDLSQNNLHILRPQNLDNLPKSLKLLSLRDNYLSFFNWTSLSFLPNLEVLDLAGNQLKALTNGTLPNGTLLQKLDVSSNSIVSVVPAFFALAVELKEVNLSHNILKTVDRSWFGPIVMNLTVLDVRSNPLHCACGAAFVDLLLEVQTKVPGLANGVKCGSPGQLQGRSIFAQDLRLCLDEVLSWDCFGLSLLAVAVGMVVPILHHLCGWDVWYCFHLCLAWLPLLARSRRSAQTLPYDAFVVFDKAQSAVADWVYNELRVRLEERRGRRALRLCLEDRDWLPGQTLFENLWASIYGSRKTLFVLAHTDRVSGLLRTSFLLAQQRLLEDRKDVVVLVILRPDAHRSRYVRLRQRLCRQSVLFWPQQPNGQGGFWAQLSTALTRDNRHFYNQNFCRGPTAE
Experimental: The mouse macrophage cell line, RAW264.7, was obtained from ATCC and maintained in DMEM, supplemented with 10% bovine growth serum and 1× penicillin streptomycin. Cells were maintained at 37° C. with 5% carbon dioxide: 95% air atmosphere within the incubator. Experiments were completed in a 96-well plate where cells were seated at a density of 1×10^5 cells per well, 24 prior to stimulation with TLR agonists and antagonists. Lipids were dried under a stream of nitrogen, hydrated with phosphate-buffered saline (PBS) at 37° C. for one hour, followed by water bath sonication to create liposomes. Each condition for cell stimulation and antagonism was prepared in DMEM in a separate tube and consisted of: control, TLR agonist, TLR agonist+lipid, and lipid alone. 100 μL aliquots of medium+agonists+antagonists were added to each well and incubated at 37° C. for 4 hours. Subsequently, the media were collected, diluted and an enzyme-linked immunosorbent assay (ELISA) was performed to quantify TNFα release by cells.
TLR 9 is another member of the intracellular TLRs found in the endosomal compartment. It detects unmethylated CpG sequences in DNA molecules commonly found among bacteria and DNA viruses (H. Hemmi, et al., “A Toll-like receptor recognizes bacterial DNA.,” Nature, vol. 408, no. 6813, pp. 740-5, December 2000; J. Lund, et al, “Toll-like receptor 9-mediated recognition of Herpes simplex virus-2 by plasmacytoid dendritic cells.,” J. Exp. Med., vol. 198, no. 3, pp. 513-20, August 2003). To test antagonism activity of PX lipids against TLR 9, RAW264.7 cells were stimulated for 5.5 hours with 5 μg/mL CpG in the absence or presence of 100 μg/mL phospholipid. […] The action of CpG is not affected by POPC, POPG, or many of the xylitol phospholipids, such as 14:0 DEPX, DSPX and 18:1 DEPX.

RSV = assay: Binding of RSV to solid phase phospholipid; parameters: species or system human RSV A2 strain; settings: 0.625 nmol lipid, 37° C., 1 hour
Experimental: Lipids were dried under a stream of nitrogen and resuspended in 100% ethanol, and 0.625 nmol was added in a 40 μL volume to each well of a half-area, 96-well plate. The solvent was evaporated under warm air for 90 minutes. 120 μL of blocking solution (150 mM NaCl, 20 mM Tris pH 7, 5 mM CaCl2) containing 3% BSA w/v) was added to each well and incubated for 1 hour at room temperature. Wells were washed 3 times with (150 mM NaCl, 20 mM Tris pH 7, 5 mM CaCl2)) followed by the addition of 40 μL of serial dilutions of RSV (2.5×10^7, 1.25×10^7, 0.625×10^7, 0.3125×10^7, 0.15625×10^7 pfu/mL) in blocking solution to each well and the plate was incubated at 37° C. for 1 hour. The wells were washed 3 times and 40 μL of α-RSV:HRP antibody diluted 1:500 was added and incubated at 37° C. for 1 hour. After washing out the primary antibody, the peroxidase activity was detected with the substrate o-phenylenediamine and the absorbance read at 490 nm to detect degree of binding.
A quantitative plaque assay takes a week to develop without accounting for maintenance of cells. In order to determine the mechanism of antiviral action of PX analogs and explore a faster assay that could easily be mass-produced, lipids were assessed for their ability to bind RSV. A solid phase of 0.625 nmol of lipid was dried onto a 96-well plate. Binding of fluid-phase RSV to the lipids was assessed at viral concentrations of 8×105 to 2.5×10^7 pfu/mL, at 37° C. for 1 hour. Viral binding was detected with a primary anti-RSV antibody conjugated to HRP. The peroxidase reaction was developed with o-phenylenediamine and absorbance measurement at 490 nm.

In the case of `CCCCCCCCCCCCCCOC[C@H](COP(=O)(O)OCC(O)C(O)C(O)CO)OCCCCCCCCCCCCCC` (mixture of isomers) [14:0 DEPX, sn-1-O-myristyl, sn-2-O-myristyl sn-3 glycerol phosphoxylitol], the “antagonism of TLR 9 activation (TNFα secretion)” value (from here on “antagonism of TLR 9 activation”) (TLR 9) is reported as “not affected” and the “binding of solid phase lipid to RSV” value (RSV) is reported as “bound to the RSV virus strongly”.
`CCCCCCC=CCCCCCCCC(=O)OCC(COP(=O)(O)OCC(O)C(O)C(O)CO)OC(=O)CCCCCCCC=CCCCCCC` (mixture of isomers) [16:1 DPPX, sn-1-palmitoleoyl, sn-2-palmitoleoyl sn-3 glycerol phosphoxylitol] was tested, and the “binding of solid phase lipid to RSV” value (RSV) was “only bind weakly”.
`CCCCCCCCC=CCCCCCCCCOCC(COP(=O)(O)OCC(O)C(O)C(O)CO)OCCCCCCCCC=CCCCCCCCC` (mixture of isomers) [18:1 DEPX, sn-1-O-octadecenyl, sn-2-O-octadecenyl sn-3 glycerol phosphoxylitol] was tested, and the “antagonism of TLR 9 activation” value (TLR 9) was “not affected” and the “binding of solid phase lipid to RSV” value (RSV) was “affinity comparable to that of POPG”.
With `CCCCCC=CCC=CCCCCCCCC(=O)OCC(COP(=O)(O)OCC(O)C(O)C(O)CO)OC(=O)CCCCCCCC=CCC=CCCCCC` (mixture of isomers) [18:2 DLPX, sn-1-linoleoyl, sn-2-linoleoyl sn-3 glycerol phosphoxylitol] the “antagonism of TLR 9 activation” value (TLR 9) was “effective against TLR 9 activation; also recorded: only effective antagonists of TLR 9 activation”, the TLR9 antagonist activity (TLR 9) was “+ (cutoff being greater than a 50% reduction in cytokine secretion compared to activating TLR ligand alone)” and the “binding of solid phase lipid to RSV” value (RSV) was “only bind weakly”.
`CCCCCCCCCCCCCC(=O)OC[C@H](COP(=O)(O)OCC(O)C(O)C(O)CO)OC(=O)CCCCCCCCCCCCC` (mixture of isomers) [DMPX, sn-1-myristoyl, sn-2-myristoyl sn-3 glycerol phosphoxylitol] was tested, and the “antagonism of TLR 9 activation” value (TLR 9) was “acts as an agonist for TLR9 activation” and the “binding of solid phase lipid to RSV” value (RSV) was “bound strongly”.
`CCCCCCCCC=CCCCCCCCC(=O)OCC(COP(=O)(O)OCC(O)C(O)C(O)CO)OC(=O)CCCCCCCC=CCCCCCCCC` (mixture of isomers) [DOPX, sn-1-oleoyl, sn-2-oleoyl sn-3 glycerol phosphoxylitol] was tested, and the “antagonism of TLR 9 activation” value (TLR 9) was “reduce the TNF-α secretion to control levels; also recorded: inhibits; also recorded: effective against TLR 9 activation; also recorded: only effective antagonists of TLR 9 activation”, the TLR9 antagonist activity (TLR 9) was “+ (cutoff being greater than a 50% reduction in cytokine secretion compared to activating TLR ligand alone)” and the “binding of solid phase lipid to RSV” value (RSV) was “only bind weakly”.
In the case of `CCCCCCCCCCCCCCCC(=O)OCC(COP(=O)(O)OCC(O)C(O)C(O)CO)OC(=O)CCCCCCCCCCCCCCC` (stereo not drawn) [DPPX, sn-1-palmitoyl, sn-2-palmitoyl sn-3 glycerol phosphoxylitol], the “binding of solid phase lipid to RSV” value (RSV) is reported as “bound strongly”.
`CCCCCCCCCCCCCCCCCC(=O)OCC(COP(=O)(O)OCC(O)C(O)C(O)CO)OC(=O)CCCCCCCCCCCCCCCCC` (stereo not drawn) [DSPX, sn-1-stearoyl, sn-2-stearoyl sn-3 glycerol phosphoxylitol] was tested, and the “antagonism of TLR 9 activation” value (TLR 9) was “not affected” and the “binding of solid phase lipid to RSV” value (RSV) was “bound strongly”.
In the case of `CCCCCCCC/C=C\CCCCCCCC(=O)O[C@H](COC(=O)CCCCCCCCCCCCCCC)COP(=O)([O-])OCC[N+](C)(C)C` [POPC, 1-palmitoyl-2-oleoyl-sn-glycero-3-phosphocholine, reference compound], the “antagonism of TLR 9 activation” value (TLR 9) is reported as “not affected”.
`CCCCCCCC/C=C\CCCCCCCC(=O)O[C@H](COC(=O)CCCCCCCCCCCCCCC)COP(=O)(O)OCC(O)CO` (stereo partly drawn) [POPG, palmitoyl-oleoyl-phosphatidylglycerol, reference compound] was tested, and the “antagonism of TLR 9 activation” value (TLR 9) was “not affected”.
`CCCCCCCC/C=C\CCCCCCCC(=O)O[C@H](COC(=O)CCCCCCCCCCCCCCC)COP(=O)(O)OCC(O)C(O)C(O)CO` (stereo partly drawn) [POPX, sn-1-palmitoyl, sn-2-oleoyly sn-3 glycerol phosphoxylitol] was tested, and the “antagonism of TLR 9 activation” value (TLR 9) was “reduce the TNF-α secretion to control levels; also recorded: inhibits; also recorded: effective against TLR 9 activation; also recorded: only effective antagonists of TLR 9 activation”, the TLR9 antagonist activity (TLR 9) was “+ (cutoff being greater than a 50% reduction in cytokine secretion compared to activating TLR ligand alone)” and the “binding of solid phase lipid to RSV” value (RSV) was “affinity comparable to that of POPG”.
